In assay [1] the target is T1, PfCDPK3 (full-length recombinant CDPK3) (Plasmodium falciparum, UniProt Q9NJU9).
T1 construct: some truncated fragments
T1 sequence (Q9NJU9 1-562): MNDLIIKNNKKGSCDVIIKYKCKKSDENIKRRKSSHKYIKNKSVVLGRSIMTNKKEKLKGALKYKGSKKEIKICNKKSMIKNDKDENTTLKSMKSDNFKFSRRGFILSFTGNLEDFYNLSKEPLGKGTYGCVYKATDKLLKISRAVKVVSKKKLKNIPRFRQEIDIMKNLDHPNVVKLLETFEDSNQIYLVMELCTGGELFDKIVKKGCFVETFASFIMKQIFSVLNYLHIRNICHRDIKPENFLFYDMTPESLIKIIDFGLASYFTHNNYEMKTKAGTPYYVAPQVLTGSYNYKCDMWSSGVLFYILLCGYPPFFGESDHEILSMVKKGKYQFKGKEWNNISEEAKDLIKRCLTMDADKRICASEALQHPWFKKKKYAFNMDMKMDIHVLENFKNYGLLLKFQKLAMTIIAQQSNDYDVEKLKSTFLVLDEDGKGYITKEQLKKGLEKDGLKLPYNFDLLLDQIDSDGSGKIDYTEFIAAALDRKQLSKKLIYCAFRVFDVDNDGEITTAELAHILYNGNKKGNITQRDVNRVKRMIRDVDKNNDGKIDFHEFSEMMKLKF
Kind of assay: ADP-Glo luminescence kinase assay. It is filed as biochemical. The conditions noted are these: MBP as exogenous substrate; 100 µM ATP; 5 mM CaCl2; 20 mM MgCl2; 40 mM Tris-Cl pH 7.5; 30 °C, 1 h. In general terms: In ADP-Glo the light output rises with the ADP produced.

Assay [2] concerns the target T1, PfCDPK3 (full-length recombinant CDPK3). Kind of assay: semi-synthetic epitope tagging: thiophosphorylation, PNBM alkylation, anti-thiophosphate ester Western blot. It is filed as biochemical. The conditions noted are these: GST as exogenous substrate; 100 µM ATPγS; 5 mM CaCl2; 50 mM MgCl2; 50 mM Tris; 30 °C, 2 h. In general terms: In western blotting, separated proteins are transferred to a membrane and probed.

The source of these data is publication doi:10.64898/2025.12.04.692444v1, “Calcium Dependent Protein Kinase 3 is not essential for the asexual replication of Plasmodium falciparum” (biorxiv, 2025).

Molecules are shown by their SMILES.

Take `Nc1ncnc2c1ncn2[C@@H]1O[C@H](COP(=O)(O)OP(=O)(O)OP(=O)(O)O)[C@@H](O)[C@H]1O` [ATP]: the “ADP-Glo luminescence kinase assay” value in assay [1] is “conversion of ATP to ADP by the recombinant CDPK3, was higher in the presence of calcium”.
Regarding `Nc1ncnc2c1ncn2[C@@H]1O[C@H](COP(=O)(O)OP(=O)(O)OP(O)(O)=S)[C@@H](O)[C@H]1O` [ATPγS], the “semi-synthetic epitope tagging: thiophosphorylation, PNBM alkylation, anti-thiop” value in assay [2] is “ATPγS, a ATP analog, containing terminal thiophosphate group was used as the source”.
